Measured values: patent publication US9914760B2, “Methods of identifying, isolating and using odorant and aroma receptors” (Firmenich SA, priority 2013, dated 2018)

How the values were obtained:
Test in all cases: cell-based calcium-flux assay, HEK293T with Gα15
OR11H4 = target: T1, OR11H4 (Homo sapiens, UniProt Q8NGC9); details: dose-response curves FIG. 6D-J
T1 construct: expressed in transfected cells
T1 sequence (Q8NGC9 1-324): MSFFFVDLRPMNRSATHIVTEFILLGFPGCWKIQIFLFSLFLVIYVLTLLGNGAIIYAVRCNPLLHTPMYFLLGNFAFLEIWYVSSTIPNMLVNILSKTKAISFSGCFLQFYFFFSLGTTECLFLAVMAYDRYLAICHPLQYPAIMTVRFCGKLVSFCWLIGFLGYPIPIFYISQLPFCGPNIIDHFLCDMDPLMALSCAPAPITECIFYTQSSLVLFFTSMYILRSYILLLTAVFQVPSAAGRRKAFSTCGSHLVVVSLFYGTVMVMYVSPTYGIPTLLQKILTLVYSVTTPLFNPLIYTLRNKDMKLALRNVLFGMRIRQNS
Source text: (§1) The activity of candidate human indole and skatole malodors receptors OR52N2 (SEQ ID NO: 11 and SEQ ID NO: 12), OR11G2 (SEQ ID NO: 13 and SEQ ID NO: 14, OR5AC2 (SEQ ID NO: 75 and SEQ ID NO: 76), OR4C15 (SEQ ID NO: 79 and SEQ ID NO: 80), OR8S1 (SEQ ID NO: 83 and SEQ ID NO: 84), OR11H6 (SEQ ID NO: 15 and SEQ ID NO: 16) and OR11H4 (SEQ ID NO: 49 and SEQ ID NO: 50) and candidate mouse indole and skatole malodors receptors Olfr665 (SEQ ID NO: 9 and SEQ ID NO 10) and Olfr740 (SEQ ID NO: 1 and SEQ ID NO 2) were confirmed in cell-based calcium-flux assays (FIGS. 6A to 6J). Cells stably co-expressing Rho-tagged human OR52N2 (FIG. 6A, B) or OR11G2 (FIG. 6C) and Gα15 (SEQ ID NO: 25) were exposed to increasing concentrations of skatole or indole. FIG. 6B is a repeat experiment showing similar activity of OR52N2 with indole and skatole. Odorant-induced OR52N2 or OR11G2 activity was detected by measuring the maximum Calcium 5 dye (Molecular Devices) fluorescence change following odorant exposure. Activity is defined as the baseline corrected Relative Fluorescent Units (RFU) ratios normalized to the highest RFU in the experiment in FIG. 6A. […] A cell line lacking a receptor, for example hOR52N2, was used as a control for non-specific activity at high concentrations (‘Indole control’ and ‘Skatole control’). The human receptor OR52N2 (SEQ ID NO: 11 and SEQ ID NO: 12) was identified because of its sequence similarity to mouse Olfr665 (SEQ ID NO: 10), an indole/skatole receptor isolated from olfactory neurons responding to both indole and skatole. The human receptor OR11G2 (SEQ ID NO: 13 and SEQ ID NO: 14) was identified because of its sequence similarity to mouse Olfr740 (SEQ ID NO: 2), an indole/skatole receptor isolated from olfactory neurons responding to both indole and skatole. The receptors were modified with the Rho sequence and stably expressed in HEK 293T cells. Further examples show indole and skatole dose-response curves for human receptors OR5AC2, OR4C15, OR8S1, OR11H6, OR11H4 and mouse receptors Olfr665 and Olfr740 (FIG. 6D-J). The human receptor OR5AC2 (SEQ ID NO: 75 and SEQ ID NO: 76) was identified because of its sequence similarity to mouse Olfr207 (SEQ ID NO: 78), a receptor isolated from olfactory neurons responding to both indole and skatole. The human receptor OR4C15 (SEQ ID NO: 79 and SEQ ID NO: 80) was identified because of its sequence similarity to mouse Olfr211 (SEQ ID NO: 82), a receptor isolated from olfactory neurons responding to both indole and skatole. The human receptor OR8S1 (SEQ ID NO: 83 and SEQ ID NO: 84) was identified because of its sequence similarity to mouse Olfr257 (SEQ ID NO: 86), a receptor isolated from olfactory neurons responding to both indole and skatole. The human receptor OR11H6 (SEQ ID NO: 15 and SEQ ID NO: 16) was identified because of its sequence similarity to mouse Olfr745 (SEQ ID NO: 8), a receptor isolated from olfactory neurons responding to both indole and skatole. The human receptor OR11H4 (SEQ ID NO: 49 and SEQ ID NO: 50) was identified because of its sequence similarity to mouse Olfr746 (SEQ ID NO: 38), a receptor isolated from olfactory neurons responding to both indole and skatole. The mouse receptor Olfr665 (SEQ ID NO: 9 and SEQ ID NO: 10) was identified directly from NGS data from isolated olfactory neurons responding to both indole and skatole. The mouse receptor Olfr740 (SEQ ID NO: 1 and SEQ ID NO: 2) was identified directly from NGS data from isolated olfactory neurons responding to both indole and skatole. Co-expression of the human G alpha subunit Gα15 activates the Gq transduction pathway that leads to an internal Ca2+ increase upon binding to the appropriate ligand.

OR8S1 = target: T2, OR8S1 (Homo sapiens, UniProt Q8NH09); details: dose-response curves FIG. 6D-J
T2 construct: expressed in transfected cells
T2 sequence (Q8NH09 1-359): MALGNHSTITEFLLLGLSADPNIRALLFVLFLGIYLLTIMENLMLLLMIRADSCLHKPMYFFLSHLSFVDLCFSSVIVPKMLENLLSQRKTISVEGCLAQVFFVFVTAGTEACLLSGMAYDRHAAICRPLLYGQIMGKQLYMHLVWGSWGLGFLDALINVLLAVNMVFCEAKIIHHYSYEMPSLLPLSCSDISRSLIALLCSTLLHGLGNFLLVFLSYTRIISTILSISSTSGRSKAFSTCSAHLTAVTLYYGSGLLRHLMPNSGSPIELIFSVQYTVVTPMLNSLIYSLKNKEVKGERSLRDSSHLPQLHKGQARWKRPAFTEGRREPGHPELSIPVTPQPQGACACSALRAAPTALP
Source text: as §1

OR52N2 = target: T3, OR52N2 (Homo sapiens, UniProt Q8NGI0); details: increasing concentrations; FIG. 6A, B
T3 construct: expressed in transfected cells
T3 sequence (Q8NGI0 1-321): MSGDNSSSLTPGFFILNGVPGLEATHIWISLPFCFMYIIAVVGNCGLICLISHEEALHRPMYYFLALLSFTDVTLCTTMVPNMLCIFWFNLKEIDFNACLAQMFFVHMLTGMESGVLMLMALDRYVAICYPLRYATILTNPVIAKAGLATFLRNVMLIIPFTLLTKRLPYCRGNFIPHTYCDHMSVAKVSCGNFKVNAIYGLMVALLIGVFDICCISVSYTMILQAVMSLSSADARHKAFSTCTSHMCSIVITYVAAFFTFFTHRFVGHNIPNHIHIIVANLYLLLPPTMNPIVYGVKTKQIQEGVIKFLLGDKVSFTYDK
Source text: as §1

Row | SMILES | receptor response in vitro (OR11H4) | receptor response in vitro (OR8S1) | receptor activity (Calcium 5 dye fluorescence change) (OR52N2)
1 | c1ccc2[nH]ccc2c1 [indole] | responded | responded | dose-dependent increase of receptor activity
2 | Cc1c[nH]c2ccccc12 [skatole, 3-methyl indole] | responded | responded | dose-dependent increase of receptor activity
